Assay results published in patent publication US6365613B1, “Fungicidal mixtures” (BASF Aktiengesellschaft, priority 1997, dated 2002).

Tested on: Botrytis cinerea
Experiment: Activity against Botrytis cinerea on bell peppers (fruit disks, protective spray)
Format: in vivo
Details: single active ingredient, green bell pepper disks, 4 days at 18° C.
Experimental: Activity against Botrytis cinerea on bell peppers
Disks of green bell peppers were sprayed to runoff point with an aqueous preparation of active ingredient which had been prepared from a stock solution comprising 10% of active compound, 63% of cyclohexanone and 27% of emulsifier. 2 hours after the spray coating had dried on, the fruit disks were inoculated with a spore suspension of Botrytis cinerea containing 1.7×10^6 spores per ml of a 2% strength Biomalz solution. The inoculated fruit disks were subsequently incubated in humid chambers at 18° C. for 4 days. The Botrytis infection on the diseased fruit disks was then evaluated visually.
Evaluation was carried out by determining the infected leaf areas in percent. These percentages were converted into efficacies. The efficacy (E) was calculated as follows using Abbot's formula: […]
α corresponds to the fungal infection of the treated plants in % and β corresponds to the fungal infection of the untreated (control) plants in % An efficacy of 0 means that the infection level of the treated plants corresponds to that of the untreated control plants; an efficacy of 100 means that the treated plants were not infected.
The expected efficacies of the mixtures of the active ingredients were determined using Colby's formula [R. S. Colby, weeds 15 (1967), 20-22] and compared with the observed efficacies.
Colby's formula: E=x+y−x·y/100
E expected efficacy, expressed in % of the untreated control, when using the mixture of the active ingredients A and B at the concentrations a and b x efficacy, expressed in % of the untreated control, when using the active ingredient A at the concentration a y efficacy, expressed in % of the untreated control, when using the active ingredient B at the concentration b

CCCCNC(=O)n1c(NC(=O)OC)nc2ccccc21 [Comp. IIa, methyl 1-(butylcarbamoyl)benzimidazol-2-ylcarbamate, reference compound]
Efficacy in % of the untreated control (6.3 ppm in the spray liquor): 10%
Efficacy in % of the untreated control (12.5 ppm in the spray liquor): 20%

COC(=O)NC(=S)Nc1ccccc1NC(=S)NC(=O)OC [Comp. IIf, dimethyl 4,4′-(o-phenylene)bis(3-thioallophanate), reference compound]
Efficacy in % of the untreated control (12.5 ppm in the spray liquor): 0%
Efficacy in % of the untreated control (25 ppm in the spray liquor): 0%
Efficacy in % of the untreated control (50 ppm in the spray liquor): 20%

CO/N=C(/C(=O)OC)c1ccccc1COc1ccccc1C [Compound Ia]
Efficacy in % of the untreated control (6.3 ppm in the spray liquor): 20%
Efficacy in % of the untreated control (12.5 ppm in the spray liquor): 30%
Efficacy in % of the untreated control (25 ppm in the spray liquor): 30%
Efficacy in % of the untreated control (50 ppm in the spray liquor): 50%

CO/N=C(/C(=O)OC)c1ccccc1COc1cc(C)ccc1C [Compound Ic]
Efficacy in % of the untreated control (12.5 ppm in the spray liquor): 50%
Efficacy in % of the untreated control (25 ppm in the spray liquor): 80%
